According to patent US20110206673A1, “POLYPEPTIDES AND POLYNUCLEOTIDES FOR ARTEMIN AND RELATED LIGANDS, AND METHODS OF USE THEREOF” (priority 2007, published 2011):

Assays:
MCF-7 cells = assay: Soft agar growth assay (96-well, MTT readout); type: cell-based, human
Method: To perform soft agar colony formation assays, 50 μl of 0.5% agarose in serum containing medium was plated onto each well of 96-well flat-bottom microplates, as a base agar layer. Next, 5×10^3 cells in a 100 μl mixture of 0.35% agarose in serum containing medium were plated onto the base layer. Subsequently, 100 μl of the medium was added to prevent drying of the agarose gels. For antibody treatment, the antibodies at the indicated concentrations were added into the top agar layer and the culture medium to ensure the complete exposure of cells to antibodies. The plates were incubated at 37° C. in a humidified incubator. The top culture medium including the antibodies was changed every 3 days. After 10 days, 20 μl of 5 mg/ml MTT (Sigma Chemical Company, St Louis, Mo., USA) was added into each well and incubated at 37° C. for 4 hours followed by adding 100 μl of acidified lysis buffer (0.01% HCl in 10% SDS). The plate was incubated at 42° C. to ensure a homogenous mixture. The plate was shaken briefly and then read at 595 nm (test wavelength) and 690 nm (reference wavelength) using the Synergy™ 2 Multi-Mode Microplate Reader (BioTek instruments, Inc., Vermont, USA).

[1] = system: MCF7-ARTN and MCF7-Vec cells; assay: MTT assay of chemotherapy drug induced death; type: cell-based, human; conditions: 10% serum; both MCF7-ARTN and MCF7-Vec cells
Method: MTT (3-[4,5-dimethylthiazol-2-yl]-2,5-diphenyl tetrazolium bromide) assays were used measure cell proliferation. Cells were seeded into 96 well flat bottom tissue culture microplates in 100 μl RPMI-1640 culture medium containing 10% FBS at a concentration of 5×10^3 cells/well. On assay day, 10 μl of the MTT labelling reagent was added at a final concentration 0.5 mg/ml to each well and the cells were labelled for 5 h in the incubator. At the end of the incubation period, the media was removed and the converted dye was solubilised with 100 μl solubilising solution (0.01N HCl in 10% SDS in water). The plates were then sealed and placed at 37° C. overnight to completely solubilise the purple formazan crystals. The absorbance of the converted dye was measured using Spectra Max 250 multiplate reader at a wavelength of 570 nm with background subtraction at 650 nm. Each treatment was performed at least in triplicate.

[2] = system: MCF7-ARTN and MCF7-Vec cells; assay: Soft agar colony formation in the presence of Tamoxifen (six-well); type: cell-based, human; conditions: 1 μM and 5 μM
Method: For soft agar colony formation assay, cells were cultured in 6-well plates first covered with a layer of agar (0.5%). Cells were grown in RPMI 1640 media containing 10% FBS. The middle layer included 5×10^3 cells in 0.35% agar in RPMI 1640 media containing 10% FBS. Media was added as the top layer to prevent drying of the agarose gels. The plates were incubated at 37° C. in a humidified incubator for 14 days. After this, cells were stained with 0.5 ml of 0.005% crystal violet in distilled water for 1 h and distained for 2 h in water. Colonies were inspected and photographed.

[3] = system: MCF-7 breast cancer cells; conditions: cited from earlier work

Structure (SMILES) | soft agar growth compared with controls (MCF-7 cells; Faslodex (ICI 182,780) 100 nM alone) | soft agar growth compared with controls (MCF-7 cells; Tamoxifen 1 μM alone) | cell death (MTT viability) [1] | number of colonies formed in soft agar [2] | effect at lower concentrations ([3]; 0.1-1 μM) | effect at pharmacological concentrations ([3]; above 5 μM)
C[C@]12CC[C@@H]3c4ccc(O)cc4C[C@@H](CCCCCCCCC[S+]([O-])CCCC(F)(F)C(F)(F)F)[C@H]3[C@@H]1CC[C@@H]2O (stereo partly drawn) [Faslodex, Faslodex (ICI 182,780)] | 55.8% | – | – | – | – | –
CC/C(=C(\c1ccccc1)c1ccc(OCCN(C)C)cc1)c1ccccc1 [Tamoxifen] | – | 40.4% | caused cell death in a dose dependent manner | reduced the number of colonies | induce a cell-cycle arrest | induce apoptosis
